Assay results reported in US9624214B2, “Amino-substituted imidazo[1,2-a]pyridinecarboxamides and their use” (BAYER PHARMA AKTIENGESELLSCHAFT, priority 2012, dated 2017).
Counter-ions that a name gives are not always drawn.

biological target: T1, recombinant guanylate cyclase reporter cell line (Rattus norvegicus, UniProt P19686+P20595); assay: B-2. Action on recombinant guanylate cyclase reporter cell line; type: cell-based; details: MEC = minimal effective concentration; in some cases mean values from individual determinations
T1 construct: expressed in transfected cells
T1 sequence (P20595 1-619): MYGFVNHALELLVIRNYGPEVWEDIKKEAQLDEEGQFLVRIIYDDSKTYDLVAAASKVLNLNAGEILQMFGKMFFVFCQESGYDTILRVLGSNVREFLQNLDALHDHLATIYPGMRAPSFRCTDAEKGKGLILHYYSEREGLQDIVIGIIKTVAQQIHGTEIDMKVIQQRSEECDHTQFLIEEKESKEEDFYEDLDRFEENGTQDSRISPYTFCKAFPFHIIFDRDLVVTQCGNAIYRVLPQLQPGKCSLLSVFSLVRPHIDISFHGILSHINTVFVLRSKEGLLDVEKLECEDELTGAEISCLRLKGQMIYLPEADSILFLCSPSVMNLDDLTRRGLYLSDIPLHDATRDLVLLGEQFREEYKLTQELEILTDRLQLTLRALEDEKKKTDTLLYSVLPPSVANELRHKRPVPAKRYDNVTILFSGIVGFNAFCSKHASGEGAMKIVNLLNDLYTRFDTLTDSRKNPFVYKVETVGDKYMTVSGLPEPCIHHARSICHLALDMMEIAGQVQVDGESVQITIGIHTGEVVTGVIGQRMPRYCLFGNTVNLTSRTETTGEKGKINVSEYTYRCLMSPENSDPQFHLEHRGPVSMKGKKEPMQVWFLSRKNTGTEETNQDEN
T1 sequence (P19686 1-690): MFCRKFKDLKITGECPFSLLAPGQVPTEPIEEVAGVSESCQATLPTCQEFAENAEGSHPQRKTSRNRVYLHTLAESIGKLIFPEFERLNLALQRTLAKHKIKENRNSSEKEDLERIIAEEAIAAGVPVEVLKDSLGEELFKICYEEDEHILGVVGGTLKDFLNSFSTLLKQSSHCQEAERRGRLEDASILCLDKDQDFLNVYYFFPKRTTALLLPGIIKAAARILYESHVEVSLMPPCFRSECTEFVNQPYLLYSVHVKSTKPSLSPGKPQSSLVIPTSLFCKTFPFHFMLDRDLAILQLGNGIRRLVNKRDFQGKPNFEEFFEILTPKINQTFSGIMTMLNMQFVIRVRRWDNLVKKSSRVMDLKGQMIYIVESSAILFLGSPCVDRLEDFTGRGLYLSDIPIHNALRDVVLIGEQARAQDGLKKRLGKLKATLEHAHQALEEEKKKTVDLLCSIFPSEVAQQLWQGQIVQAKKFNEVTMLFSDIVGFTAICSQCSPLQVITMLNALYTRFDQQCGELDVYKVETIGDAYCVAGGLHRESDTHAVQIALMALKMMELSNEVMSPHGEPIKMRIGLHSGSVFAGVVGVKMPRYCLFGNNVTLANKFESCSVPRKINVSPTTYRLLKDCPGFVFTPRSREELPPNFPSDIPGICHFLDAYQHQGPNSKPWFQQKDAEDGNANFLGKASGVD
Method in brief: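 Whole-cell reporter assay with recombinant guanylate cyclase; endpoint = minimal effective concentration.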

MEC [µM] | SMILES
1.00 | Cc1nc2c(OCc3c(F)cccc3F)cccn2c1C(=O)NC(CN)COc1ccc(F)c(F)c1 (stereo not drawn) [Example 124, ent-N-[1-Amino-3-(3,4-difluorophenoxy)propan-2-yl]-8-[(2,6-difluorobenzyl)oxy]-2-methylimidazo[1,2-a]pyridine-3-carboxamide Ditrifluoroacetate]
1.00 | Cc1nc2c(OCc3c(F)cccc3F)cccn2c1C(=O)NCCNC(C)C [Example 130, 8-[(2,6-difluorobenzyl)oxy]-N-[2-(isopropylamino)ethyl]-2-methylimidazo[1,2-a]-pyridine-3-carboxamide]
3.00 | Cc1nc2c(OCc3c(F)cccc3F)cccn2c1C(=O)NCCN1CCS(=O)(=O)CC1 [Example 131, 8-[(2,6-difluorobenzyl)oxy]-N-[2-(1,1-dioxidothiomorpholin-4-yl)ethyl]-2-methylimidazo[1,2-a]pyridine-3-carboxamide]
3.00 | Cc1nc2c(OCc3c(F)cccc3F)cccn2c1C(=O)NCCN1CCN(C)CC1 [Example 133, 8-[(2,6-difluorobenzyl)oxy]-2-methyl-N-[2-(4-methylpiperazin-1-yl)ethyl]imidazo[1,2-a]-pyridine-3-carboxamide]
0.10 | Cc1cc(OCc2c(F)cccc2F)c2nc(C)c(C(=O)NCCN3CCOCC3)n2c1 [Example 136, 8-[(2,6-difluorobenzyl)oxy]-2,6-dimethyl-N-[2-(morpholin-4-yl)ethyl]imidazo[1,2-a]pyridine-3-carboxamide]
1.00 | Cc1cc(OCc2c(F)cccc2F)c2nc(C)c(C(=O)NCCN3CCN(C)CC3)n2c1 [Example 137, 8-[(2,6-difluorobenzyl)oxy]-2,6-dimethyl-N-[2-(4-methylpiperazin-1-yl)ethyl]imidazo[1,2-a]-pyridine-3-carboxamide]
1.00 | Cc1cc(OCc2c(F)cccc2F)c2nc(C)c(C(=O)NCCN3CCN(C(C)C)CC3)n2c1 [Example 139, 8-[(2,6-difIuorobenzyl)oxy]-N-[2-(4-isopropylpiperazin-1-yl)ethyl]-2,6-dimethylimidazo[1,2-a]pyridine-3-carboxamide]
1.00 | Cc1nc2c(OCc3c(F)cccc3F)cc(F)cn2c1C(=O)NCC(C)(C)N [Example 140, N-(2-Amino-2-methylpropyl)-8-[(2,6-difluorobenzyl)oxy]-6-fluoro-2-methylimidazo[1,2-a]-pyridine-3-carboxamide]
3.00 | Cc1nc2c(OCc3c(F)cccc3F)cccn2c1C(=O)NC(C)(C)C(C)(C)N [Example 141, N-(3-Amino-2,3-dimethylbutan-2-yl)-8-[(2,6-difluorobenzyl)oxy]-2-methylimidazo[1,2-a]pyridine-3-carboxamide]
0.30 | Cc1nc2c(OCc3c(F)cccc3F)cccn2c1C(=O)NCCN1CCC(F)(F)C1 [Example 143, 8-[(2,6-difluorobenzyl)oxy]-N-[2-(3,3-difluoropyrrolidin-l-yl)ethyl]-2-methylimidazo[1,2-a]pyridine-3-carboxamide]
3.00 | COCCNCCNC(=O)c1c(C)nc2c(OCc3c(F)cccc3F)cccn12 [Example 144, 8-[(2,6-difluorobenzyl)oxy]-N-{2-[(2-methoxyethyl)amino]ethyl}-2-methylimidazo[1,2-a]pyridine-3-carboxamide]
3.00 | Cc1nc2c(OCc3c(F)cccc3F)cccn2c1C(=O)NCC(C)(C)N(C)C [Example 145, 8-[(2,6-difluorobenzyl)oxy]-N-[2-(dimethylamino)-2-methylpropyl]-2-methylimidazo[1,2-a]pyridine-3-carboxamide]
1.00 | Cc1nc2c(OCc3c(F)cccc3F)cccn2c1C(=O)NCCN(CC(F)F)C1CC1 [Example 146, N-{2-[cyclopropyl(2,2-difluoroethyl)amino]ethyl}-8-[(2,6-difluorobenzyl)oxy]-2-methylimidazo[1,2-a]-pyridine-3-carboxamide]
1.00 | Cc1nc2c(OCc3c(F)cccc3F)cc(Cl)cn2c1C(=O)NCC(C)(C)N1CCCC1 [Example 148, 6-chloro-8-[(2,6-difluorobenzyl)oxy]-2-methyl-N-[2-methyl-2-(pyrrolidin-1-yl)-propyl]imidazo[1,2-a)pyridine-3-carboxamide]
1.00 | Cc1nc2c(OCc3c(F)cccc3F)cc(Cl)cn2c1C(=O)NCCNC(C)C [Example 149, 6-chloro-8-[(2,6-difluorobenzyl)oxy]-N-[2-(isopropylamino)ethyl]-2-methylimidazo[1,2-a]-pyridine-3-carboxamide]
0.10 | Cc1nc2c(OCc3c(F)cccc3F)cc(Cl)cn2c1C(=O)NCCN(CC(F)F)C1CC1 [Example 150, 6-chloro-N-{2-[cyclopropyl(2,2-difluoroethyl)-amino]ethyl}-8-[(2,6-difluorobenzyl)oxy]-2-methylimidazo[1,2-a]pyridine-3-carboxamide]
0.10 | Cc1nc2c(OCc3c(F)cccc3F)cc(Cl)cn2c1C(=O)NCCN1CCC(F)(F)CC1 [Example 151, 6-chloro-8-[(2,6-difluorobenzyl)oxy]-N-[2-(4,4-difluoropiperidin-1-yl)ethyl]-2-methylimidazo[1,2-a]pyridine-3-carboxamide]
1.00 | Cc1nc2c(OCc3c(F)cccc3F)cc(Cl)cn2c1C(=O)NCCN1CCN(C(C)C)CC1 [Example 152, 6-chloro-8-[(2,6-difluorobenzyl)oxy]-N-[2-(4-isopropylpiperazin-1-yl)ethyl]-2-methyl-imidazo[1,2-a]pyridine-3-carboxamide]
1.00 | COCCNCCNC(=O)c1c(C)nc2c(OCc3c(F)cccc3F)cc(Cl)cn12 [Example 153, 6-chloro-8-[(2,6-difluorobenzyl)oxy]-N-{2-[(2-methoxyethyl)amino]ethyl}-2-methylimidazo[1,2-a]pyridine-3-carboxamide]
1.00 | Cc1nc2c(OCc3c(F)cccc3F)cc(Cl)cn2c1C(=O)NCCN1CCN(C)CC1 [Example 154, 6-chloro-8-[(2,6-difluorobenzyl)oxy]-2-methyl-N-[2-(4-methylpiperazin-1-yl)ethyl]imidazo[1,2-a]pyridine-3-carboxamide]
0.30 | Cc1nc2c(OCc3c(F)cccc3F)cc(Cl)cn2c1C(=O)NCC1(N)CCC1 [Example 155, N-[(1-aminocyclobutyl)methyl]-6-chloro-8-[(2,6-difluorobenzyl)oxy]-2-methylimidazo[1,2-a]-pyridine-3-carboxamide trifluoroacetate]
3.00 | Cc1nc2c(OCc3c(F)cccc3F)cc(Cl)cn2c1C(=O)NCCN1CC(N2CCCC2)C1 [Example 156, 6-chloro-8-[(2,6-difluorobenzyl)oxy]-2-methyl-N-{2-[3-(pyrrolidin-1-yl)azetidin-1-yl]ethyl}-imidazo[1,2-a]pyridine-3-carboxamide]
0.30 | Cc1nc2c(OCc3c(F)cccc3F)cc(Cl)cn2c1C(=O)NCCN1C[C@@H](C)O[C@@H](C)C1 [Example 158, 6-chloro-8-[(2,6-difluorobenzyl)oxy]-N-{2-[(2R,6S)-2,6-dimethylmorpholin-4-yl]ethyl}-2-methylimidazo[1,2-a]pyridine-3-carboxamide]
1.00 | Cc1cc(OCc2c(F)cccc2F)c2nc(C)c(C(=O)NC3CCCC(N)C3)n2c1 (centres unmarked) [Example 160, N-(3-aminocyclohexyl)-8-[(2,6-difluorobenzyl)oxy]-2,6-dimethylimidazo[1,2-a]-pyridine-3-carboxamide]
3.00 | Cc1cc(OCc2c(F)cccc2F)c2nc(C)c(C(=O)NCCN3CC(N4CCCC4)C3)n2c1 [Example 162, 8-[(2,6-difluorobenzyl)oxy]-2,6-dimethyl-N-{2-[3-(pyrrolidin-1-yl)azetidin-1-yl]ethyl}imidazo[1,2-a]pyridine-3-carboxamide]
0.30 | Cc1cc(OCc2c(F)cccc2F)c2nc(C)c(C(=O)NCCN3CCC(F)(F)CC3)n2c1 [Example 163, 8-[(2,6-difluorobenzyl)oxy]-N-[2-(4,4-difluoro-piperidin-1-yl)ethyl]-2,6-dimethylimidazo[1,2-a]pyridine-3-carboxamide]
